For one series, the system named is male Sprague Dawley rats. In words: Plasma prolactin levels in rats (ELISA). The series is classed as in vivo, rat. As to the method: Another unwanted side effect of certain antipsychotics is hyperprolactinemia. To examine prolactin levels following the administration of a GPR52 agonist, male Sprague Dawley rats (Harlan Laboratories, San Diego, Calif.) were single-housed, handled, and moved to a private housing room one week prior to testing. Rats were individually handled and sham dosed P.O. for four days prior to testing. For an assessment of haloperidol (0.1 and 1 mg/kg P.O.) and Compound 13 (1, 10, and 100 mg/kg P.O.) on basal prolactin release, rats were dosed with acidic 20% HP-β-cyclodextrin (HBCD) or compound at 3 mL/kg P.O. in their housing room 60 minutes prior to harvest. For interaction studies, rats were dosed with 20% HBCD or Compound 13 (10 mg/kg P.O.) 90 minutes prior to harvest, and additionally with 20% HBCD vehicle or haloperidol (0.3 and 1 mg/kg P.O.) 60 minutes prior to harvest. Rats were individually taken to the harvest room, and trunk blood was collected into 4 mL EDTA tubes following live decapitation. Samples were stored on wet ice until collection was complete, then spun in a cooling centrifuge at 2400 rpm for 20 minutes. Plasma was collected and frozen for subsequent analysis using a Rat Prolactin ELISA kit (ALPCO Diagnostics: Cat#55-PRLRT-E01).
Briefly, frozen plasma was thawed on ice and mixed prior to initiation of the ELISA. Twenty-five microliters of sample plasma along with serially diluted standards (lyophilized purified rat prolactin diluted with rat prolactin calibrator/sample diluent), and calibrator/sample diluent used as a blank were placed in a 96-well plate provided with the ELISA kit. Samples, blank, and standards were measured in duplicate. […] Fifty microliters of stop solution (2M hydrochloric acid) was added to the wells prior to reading on a 96-well plate reader (SpectraMax® 340PC; Molecular Devices, Sunnyvale, Calif.) at […]. The quantity of prolactin in each sample was calculated using a standard curve.
(In general: In an ELISA, binding on a coated surface is turned into a signal by an enzyme label.)

In a further series the test system is male C57/BL6 mice. In words: Mouse basal locomotor activity. The series is classed as in vivo. The conditions noted are these: po. As to the method:
To measure basal locomotor activity, male C57/BL6 mice (8-16 weeks) (Jackson Laboratories, Sacramento, Calif.) were transferred in home cages to the testing room approximately 60 minutes prior to testing. Approximately 15 minutes after arrival in the testing room, a dark cycle commenced, with lights turning off and infrared lights turning on for experimenter visibility. Thirty minutes after the lights were turned off, animals were individually weighed and administered either vehicle (20% hydroxypropyl-β-cyclodextrin) Compound 13 (1, 2, 5, 10, or 20 mg/kg P.O.), or another GPR52 agonist (10 mg/kg P.O.) and returned to home cages. Fifteen minutes later, mice were placed into locomotor cages and activity was recorded for 60 minutes.

Another series has as its system male 129Sv/Ev mice. In words: Prepulse inhibition of the startle response in mice. The series is classed as in vivo, mouse. The conditions noted are these: mice with relatively low PPI; Compound 13 10 mg/kg P.O.; FIG. 25A. As to the method: Prepulse inhibition testing was conducted in enclosed startle chambers (Kinder Scientific StartleMonitor System, Kinder Scientific, Poway, Calif.) in which animals were placed into restrainers secured onto startle-sensing plates. A constant background white noise of 65 dB was audible in the chambers throughout testing. […]
For each animal, mean startle amplitude for each trial type during the 35-trial block was calculated, and percent prepulse inhibition (% PPI) for each prepulse intensity was calculated as the percent decrease in the mean startle amplitude in response to a given prepulse and 120 dB startle stimulus relative to the mean startle amplitude in response to the 120 dB startle stimulus alone. The % PPI was then calculated for each animal as the mean % PPI across all four prepulse intensities. […]

The test system of another series is male Sprague-Dawley rats. In words: Amphetamine-stimulated locomotor activity in rats. In kind it is in vivo, rat. To be noted: 0.5, 1, 2, 5, 10, and 20 mg/kg P.O., amphetamine 0.5 mg/kg SC, FIG. 24. On the procedure: Fifteen minutes later, rats were injected with amphetamine (0.5 mg/kg SC in volume of 1 mL/kg). Activity was then measured for 90 minutes.

Consider `O=C(NCCO)c1cccc2c1CCN2c1cc(Cc2cccc(C(F)(F)F)c2)ccn1` [Compound 13, N-(2-Hydroxyethyl)-1-(4-(3-(trifluoromethyl)benzyl)pyridin-2-yl)indoline-4-carboxamide], for which the “haloperidol-induced increase in prolactin levels” value with male Sprague Dawley rats (Compound 13 10 mg/kg P.O., at a low dose of haloperidol, FIG. 28B) is listed as “reversed”. For the same compound, the prolactin levels entry in the series on male Sprague Dawley rats (basal prolactin release, haloperidol 0.1 and 1 mg/kg P.O., Compound 13 1, 10, and 100 mg/kg P.O., FIG. 28A) is “decreased”. For the same compound, at 10 mg/kg the inhibition in the series with male C57/BL6 mice (10 mg/kg P.O.) was 70%. Besides, the ED50 – broadly, the dose at which the effect has come halfway, by size or by number of responders – with male C57/BL6 mice (1 h, P.O., activity recorded for 60 minutes, read-out: ED50 (% Inhibition in Mouse Basal Locomotor Activity)) came out at 2.7 mg/kg. In the series on male 129Sv/Ev mice, the “basal % PPI in 'poor performers'” value was “increased”. Also, the amphetamine-stimulated locomotion entry in the series on male Sprague-Dawley rats is listed as “blocked amphetamine-stimulated locomotion at several doses”.
